Target: μ-opioid receptor (Homo sapiens (Human), UniProt P35372)
Test: μ-opioid receptor [35S]GTPγS functional assay, HEK-293 cells (Table 6)
Assay type: biochemical
Conditions: for EC50: μ GTP
Description: μ-Opioid Receptor Functional Assay Procedures: [^35S]GTPγS functional assays were conducted using freshly thawed μ-receptor membranes prepared in-house from a cell line expressing recombinant μ opioid receptor in a HEK-293, CHO or U-2 OS cell background, or purchased from a commercial source (Perkin Elmer, Shelton, Conn.; or DiscovRx, Fremont, Calif.). Assay reactions were prepared by sequentially adding the following reagents to binding buffer (100 mM NaCl, 10 mM MgCl2, 20 mM HEPES, pH 7.4) on ice (final concentrations indicated): membrane protein (0.026 mg/mL), saponin ([…]), GDP ([…]) and [^35S]GTPγS (0.20 nM; Perkin Elmer, Shelton, Conn.). The prepared membrane solution (190 μl/well) was transferred to 96-shallow well polypropylene plates containing 10 μl of 20× concentrated stock solutions of the agonist [D-Ala^2, N-methyl-Phe^4 Gly-ol^5]-enkephalin (DAMGO) prepared in dimethyl sulfoxide (DMSO). Plates were incubated for 30 min at about 25° C. with shaking Reactions were terminated by rapid filtration onto 96-well Unifilter GF/B filter plates (Perkin Elmer, Shelton, Conn.) using a 96-well tissue harvester (Perkin Elmer, Shelton, Conn.) followed by three filtration washes with 200 μl of ice-cold wash buffer (10 mM NaH2PO4, 10 mM Na2HPO4, pH 7.4). Filter plates were subsequently dried at 50° C. for 2-3 hours. BetaScint scintillation cocktail (Perkin Elmer, Shelton, Conn.) was added (50 μl/well) and plates were counted using a Packard Top-Count for 1 min/well. Data were analyzed using the sigmoidal dose-response curve fitting functions in GraphPad PRISM v. 3.0, or an in-house function for non-linear, sigmoidal dose-response curve-fitting. [^35S]GTPγS functional assays can also be conducted using freshly thawed μ-receptor membranes prepared from a cell line expressing recombinant μ opioid receptor in a CHO-K1 cell background.
μ GTP Emax (%) is the maximal effect elicited by a compound relative to the effect elicited by DAMGO, a standard μ agonist. Generally, the μ GTP Emax (%) value measures the efficacy of a compound to treat or prevent pain or other Conditions.
The following TABLE 6 provides results on the activity response of certain Compounds of the Invention at the μ- and κ-opioid receptors determined as described above using HEK-293 cells.

Compound | Emax (relative to DAMGO) [%] | EC50 (bound given in μM) [µM] | EC50 [µM] | μ Emax (%) (relative to DAMGO)
Cc1c(Cl)cccc1CNC(=O)[C@@H]1C[C@]23CCN(CC4CC4)[C@H](Cc4ccc(O)cc42)[C@]3(O)C1 [Compound 125, (2R,3aS,4R,9bS)-N-(3-chloro-2-methylbenzyl)-12-(cyclopropylmethyl)-3a,8-dihydroxy-1,2,3,3a,4,5-hexahydro-4,9b-(epiminoethano)cyclopenta-[a]naphthalene-2-carboxamide] | -1 | > 20 |  | 
Cc1ccc(CNC(=O)[C@@H]2C[C@]34CCN(C)[C@H](Cc5ccc(O)cc53)[C@]4(O)C2)cc1 [Compound 104, (2R,3aS,4R,9bS)-3a,8-dihydroxy-12-methyl-N-(4-methylbenzyl)-1,2,3,3a,4,5-hexahydro-4,9b-(epiminoethano)cyclo-penta[a]naphthalene-2-carboxamide] | 52 ± 3.51 |  | 2.93 ± 1.08 | 
CN1CC[C@]23C[C@@H](NC(=O)c4ccccc4)C[C@@]2(O)[C@H]1Cc1ccc(O)cc13 [Compound 110, N-((2R,3aS,4R,9bR)-3a,8-dihydroxy-12-methyl-1,2,3,3a,4,5-hexahydro-4,9b-(epiminoethano)cyclopenta[a]naphthalen-2-yl)benzamide] | 35.2 ± 0.76 |  | 8.41 ± 0.956 | 
O=C(NCc1cccc(Cl)c1)[C@@H]1C[C@]23CCN(CC4CC4)[C@H](Cc4ccc(O)cc42)[C@]3(O)C1 [Compound 152, (2R,3aS,4R,9bS)-N-(3-chlorobenzyl)-12-(cyclopropylmethyl)-3a,8-dihydroxy-1,2,3,3a,4,5-hexahydro-4,9b-(epimino-ethano)cyclopenta[a]naphthalene-2-carboxamide] | 4.45 ± 3.18 | > 20 |  | 
CN1CC[C@]23C[C@@H](C(=O)NCCO)C[C@@]2(O)[C@H]1Cc1ccc(O)cc13 [Compound 114, (2R,3aS,4R,9bS)-3a,8-dihydroxy-N-(2-hydroxyethyl)-12-methyl-1,2,3,3a,4,5-hexahydro-4,9b-(epiminoethano)cyclo-penta[a]naphthalene-2-carboxamide] | 23 ± 1.54 |  | 8.44 ± 1.54 | 
Cc1ccc(CNC(=O)[C@H]2C[C@]34CCN(C)[C@H](Cc5ccc(O)cc53)[C@]4(O)C2)cc1 [Compound 97, (2S,3aS,4R,9bS)-3a,8-dihydroxy-12-methyl-N-(4-methylbenzyl)-1,2,3,3a,4,5-hexahydro-4,9b-(epiminoethano)cyclo-penta[a]naphthalene-2-carboxamide] | 90.3 ± 0.88 |  | 0.0281 ± 0.00154 | 
CN1CC[C@]23C[C@H](C(=O)NCc4ccc(Cl)cc4Cl)C[C@@]2(O)[C@H]1Cc1ccc(O)cc13 [Compound 107, (2S,3aS,4R,9bS)-N-(2,4-dichlorobenzyl)-3a,8-dihydroxy-12-methyl-1,2,3,3a,4,5-hexahydro-4,9b-(epiminoethano)cyclo-penta[a]naphthalene-2-carboxamide] | 94.7 ± 0.33 |  | 0.0108 ± 0.00083 | 
O=C(NCc1ccc(F)cc1F)[C@@H]1C[C@]23CCN(CC4CC4)[C@H](Cc4ccc(O)cc42)[C@]3(O)C1 [Compound 147, (2R,3aS,4R,9bS)-12-(cyclopropylmethyl)-N-(2,4-difluorobenzyl)-3a,8-dihydroxy-1,2,3,3a,4,5-hexahydro-4,9b-(epimino-ethano)cyclopenta[a]naphthalene-2-carboxamide] | -1 | > 20 |  | 
Cc1ccc(CNC(=O)[C@@H]2C[C@]34CCN(CC5CC5)[C@H](Cc5ccc(C#N)cc53)[C@]4(O)C2)cc1 [Compound 120, (2R,3aS,4R,9bS)-8-cyano-12-(cyclopropylmethyl)-3a-hydroxy-N-(4-methylbenzyl)-1,2,3,3a,4,5-hexahydro-4,9b-(epiminoethano)cyclopenta-[a]naphthalene-2-carboxamide] | 22.7 ± 1.92 |  | 0.631 ± 0.152 | 
CN1CC[C@]23C[C@H](C(=O)NCCO)C[C@@]2(O)[C@H]1Cc1ccc(O)cc13 [Compound 115, (2S,3aS,4R,9bS)-3a,8-dihydroxy-N-(2-hydroxyethyl)-12-methyl-1,2,3,3a,4,5-hexahydro-4,9b-(epiminoethano)cyclo-penta[a]naphthalene-2-carboxamide] | 35 ± 1.14 |  | 0.917 ± 0.131 | 
O=C(NCc1ccc(F)c(F)c1)[C@@H]1C[C@]23CCN(CC4CC4)[C@H](Cc4ccc(O)cc42)[C@]3(O)C1 [Compound 145, (2R,3aS,4R,9bS)-12-(cyclopropylmethyl)-N-(3,4-difluorobenzyl)-3a,8-dihydroxy-1,2,3,3a,4,5-hexahydro-4,9b-(epimino-ethano)cyclopenta[a]naphthalene-2-carboxamide] | -1 | > 20 |  | 
Cc1ccc(CNC(=O)[C@H]2C[C@]34CCN(CC5CC5)[C@H](Cc5ccc(C(N)=O)cc53)[C@]4(O)C2)cc1 [Compound 116, (2S,3aS,4R,9bS)-12-(cyclopropylmethyl)-3a-hydroxy-N^2-(4-methylbenzyl)-1,2,3,3a,4,5-hexahydro-4,9b-(epimino-ethano)cyclopenta[a]naphthalene-2,8-dicarboxamide] | 23.6 ± 1.05 |  | 0.00345 ± 0.00016 | 
CC(C)CNC(=O)[C@H]1C[C@]23CCN(C)[C@H](Cc4ccc(O)cc42)[C@]3(O)C1 [Compound 102, (2S,3aS,4R,9bS)-3a,8-dihydroxy-N-isobutyl-12-methyl-1,2,3,3a,4,5-hexahydro-4,9b-(epiminoethano)cyclo-penta[a]naphthalene-2-carboxamide] | 49.5 ± 4.94 |  | 0.655 ± 0.128 | 
CN1CC[C@]23C[C@@H](C(=O)NCc4ccc(Cl)c(Cl)c4)C[C@@]2(O)[C@H]1Cc1ccc(O)cc13 [Compound 99, (2R,3aS,4R,9bS)-N-(3,4-dichlorobenzyl)-3a,8-dihydroxy-12-methyl-1,2,3,3a,4,5-hexahydro-4,9b-(epiminoethano)-cyclopenta[a]naphthalene-2-carboxamide] | 73.3 ± 1.2 |  | 0.244 ± 0.0295 | 
O=C(NCc1cc(F)cc(F)c1)[C@H]1C[C@]23CCN(CC4CC4)[C@H](Cc4ccc(O)cc42)[C@]3(O)C1 [Compound 143, (2S,3aS,4R,9bS)-12-(cyclopropylmethyl)-N-(3,5-difluorobenzyl)-3a,8-dihydroxy-1,2,3,3a,4,5-hexahydro-4,9b-(epimino-ethano)cyclopenta[a]naphthalene-2-carboxamide] | 39.9 ± 1.01 |  | 0.00209 ± 0.00045 | 
(2R,3aS,4R,9bS)-N-(2-chlorobenzyl)-12- (cyclopropylmethyl)-3a,8-dihydroxy- 1,2,3,3a,4,5-hexahydro-4,9b-(epimino- ethano)cyclopenta[a]naphthalene-2- carboxamide [Compound 148] |  | > 20 |  | 1.00
C[C@@H]1CN(CCNC(=O)[C@H]2C[C@]34CCN(CC5CC5)[C@H](Cc5ccc(O)cc53)[C@]4(O)C2)C[C@H](C)O1 [Compound 135, (2S,3aS,4R,9bS)-12-(cyclopropylmethyl)-N-(2-((2S,6R)-2,6-dimethylmorpholino)-ethyl)-3a,8-dihydroxy-1,2,3,3a,4,5-hexahydro-4,9b-(epiminoethano)cyclo-penta[a]naphthalene-2-carboxamide] | 19.7 ± 0.89 |  | 0.0103 ± 0.00103 | 
C[C@@H]1CN(CCNC(=O)[C@@H]2C[C@]34CCN(CC5CC5)[C@H](Cc5ccc(O)cc53)[C@]4(O)C2)C[C@H](C)O1 [Compound 134, (2R,3aS,4R,9bS)-12-(cyclopropylmethyl)-N-(2-((2S,6R)-2,6-dimethylmorpholino)-ethyl)-3a,8-dihydroxy-1,2,3,3a,4,5-hexahydro-4,9b-(epiminoethano)-cyclopenta[a]naphthalene-2-carboxamide] | 9.53 ± 0.9 |  | 0.092 ± 0.0197 | 
CN1CC[C@]23C[C@@H](C(=O)NCCN4CCOCC4)C[C@@]2(O)[C@H]1Cc1ccc(O)cc13 [Compound 112, (2R,3aS,4R,9bS)-3a,8-dihydroxy-12-methyl-N-(2-morpholinoethyl)-1,2,3,3a,4,5-hexahydro-4,9b-(epimino-ethano)cyclopenta[a]naphthalene-2-carboxamide] | 38.8 ± 1.54 |  | 10.2 ± 0.241 | 
CC(C)N1CCN(C(=O)[C@@H]2C[C@]34CCN(CC5CC5)[C@H](Cc5ccc(O)cc53)[C@]4(O)C2)CC1 [Compound 132, ((2R,3aS,4R,9bS)-12-(cyclopropylmethyl)-3a,8-dihydroxy-1,2,3,3a,4,5-hexahydro-4,9b-(epiminoethano)cyclopenta-[a]naphthalen-2-yl)(4-isopropylpiperazin-1-yl)methanone] | -1 | > 20 |  | 
O=C(NCc1ccccc1O)[C@@H]1C[C@]23CCN(CC4CC4)[C@H](Cc4ccc(O)cc42)[C@]3(O)C1 [Compound 149, (2R,3aS,4R,9bS)-12-(cyclopropylmethyl)-3a,8-dihydroxy-N-(2-hydroxybenzyl)-1,2,3,3a,4,5-hexahydro-4,9b-(epimino-ethano)cyclopenta[a]naphthalene-2-carboxamide] | 0 | > 20 |  | 
